Assays:
Rattus norvegicus [1] = experiment: Reduction in DOPAC level in Sprague-Dawley rat striatum at 100 umol/kg, sc measured after 1 hr relative to control; assay type: functional
Rattus norvegicus [2] = experiment: Reduction in DOPAC level in Sprague-Dawley rat striatum at 50 umol/kg, sc measured after 1 hr relative to control; assay type: functional; design: scale not given: the % may be the effect or the level left
D(2) dopamine receptor = D(2) dopamine receptor (Homo sapiens, UniProt P14416); experiment: Displacement of [3H]7-OH-DPAT from human D2S receptor high affinity site expressed in HEK293 cells; assay type: cell-based
[3] = target: T1, Amine oxidase [flavin-containing] A (Rattus norvegicus, UniProt P21396); experiment: Displacement of [3H]Ro 41-1049 from rat MAO-A receptor expressed in HEK293 cells; assay type: cell-based
T1 sequence (P21396 whole entry): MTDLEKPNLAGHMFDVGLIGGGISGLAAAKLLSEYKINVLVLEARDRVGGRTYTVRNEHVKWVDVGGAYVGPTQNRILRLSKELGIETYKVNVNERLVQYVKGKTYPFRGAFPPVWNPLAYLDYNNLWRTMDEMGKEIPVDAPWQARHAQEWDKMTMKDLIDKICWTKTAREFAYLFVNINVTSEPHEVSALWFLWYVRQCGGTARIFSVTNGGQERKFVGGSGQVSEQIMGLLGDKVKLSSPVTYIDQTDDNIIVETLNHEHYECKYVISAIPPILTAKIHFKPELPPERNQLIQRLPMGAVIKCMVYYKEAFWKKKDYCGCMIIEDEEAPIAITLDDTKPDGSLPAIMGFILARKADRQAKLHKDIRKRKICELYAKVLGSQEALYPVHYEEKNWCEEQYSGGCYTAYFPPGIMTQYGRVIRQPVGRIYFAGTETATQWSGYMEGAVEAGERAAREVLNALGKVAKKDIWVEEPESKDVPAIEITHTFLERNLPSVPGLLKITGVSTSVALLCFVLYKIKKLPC

Rattus norvegicus [4] = experiment: Reduction in DOPAC level in Sprague-Dawley rat striatum at 33 umol/kg, sc measured after 1 hr relative to control; assay type: functional; design: scale not given: the % may be the effect or the level left

Sequence of D(2) dopamine receptor (P14416 whole entry): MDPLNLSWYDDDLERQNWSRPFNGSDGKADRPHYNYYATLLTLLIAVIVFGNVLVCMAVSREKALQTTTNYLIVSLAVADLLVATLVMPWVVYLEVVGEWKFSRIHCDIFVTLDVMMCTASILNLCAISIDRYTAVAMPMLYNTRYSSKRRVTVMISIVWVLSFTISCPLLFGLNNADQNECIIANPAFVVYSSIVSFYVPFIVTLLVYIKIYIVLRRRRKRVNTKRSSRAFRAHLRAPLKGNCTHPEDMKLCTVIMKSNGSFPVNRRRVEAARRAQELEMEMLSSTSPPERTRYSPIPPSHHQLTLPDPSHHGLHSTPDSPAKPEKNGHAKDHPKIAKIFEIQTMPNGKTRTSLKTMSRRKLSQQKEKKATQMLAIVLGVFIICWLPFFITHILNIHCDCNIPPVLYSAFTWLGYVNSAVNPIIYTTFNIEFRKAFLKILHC

SMILES	DOPAC level (% of control) (Rattus norvegicus [1]) [%]	Ki (D(2) dopamine receptor) [µM]	further results
CCCN1CCC(c2cccc(N3CCOCC3)c2)CC1	105		
CCCN1CCC(c2cccc(C#N)c2)CC1	275		
CCCN1CCN(c2cccc(C(F)(F)F)c2)CC1			Activity (Rattus norvegicus [2]): 315%
CCCN1CCC(c2ccc(OC)cc2)CC1		23	
CCCN1CCN(c2ccccc2S(C)(=O)=O)CC1	283	0.58	Ki ([3]; read-out: Ki): > 583 µM; Ki ([3]; read-out: pKi (converted)): > 631 µM
CCCN1CCC(c2cccc(OS(=O)(=O)C(F)(F)F)c2)CC1	241		
CCCN1CCN(c2cccc(S(=O)(=O)c3ccccc3)c2)CC1	152		
CCCN1CCC(c2cccc(S(=O)(=O)C(C)C)c2)CC1	205		
CCCN1CCC(c2cccc(OC(C)C)c2)CC1	112		
CCCN1CCN(c2cccc(C#N)c2)CC1	314	0.27	Ki ([3]; read-out: Ki): > 583 µM; Ki ([3]; read-out: pKi (converted)): > 631 µM
CCCN1CCC(c2cccc(C)c2)CC1	115		
CCCN1CCN(c2ccccc2Cl)CC1	368		
CCCN1CCN(c2ccccc2C)CC1	327		
CCCN1CCC(c2ccc(Cl)cc2)CC1		0.9	
CCCN1CCN(c2cccc(OC)c2)CC1	255	0.3	Ki ([3]; read-out: Ki): 16 µM
CCCN1CCC(c2cccc(S(=O)(=O)C3CCCC3)c2)CC1	170	3.8	Ki ([3]; read-out: Ki): > 583 µM; Ki ([3]; read-out: pKi (converted)): > 631 µM
CCCN1CCN(c2cccc(O)c2)CC1			Ki ([3]; read-out: Ki): > 583 µM; Ki ([3]; read-out: pKi (converted)): > 631 µM
CCCN1CCN(c2cccc(OS(C)(=O)=O)c2)CC1			Activity (Rattus norvegicus [2]): 254%

SMILES	DOPAC level (% of control) (Rattus norvegicus [1]) [%]	Ki (D(2) dopamine receptor) [µM]	further results
CCCN1CCN(c2ccccc2O)CC1	270		
CCCN1CCN(c2cccc(C(C)=O)c2)CC1	221		
CCCN1CCC(c2cccc(OC(C)(C)C)c2)CC1	196		
CCCN1CCN(c2cccc(Cl)c2)CC1	250		
CCCN1CCN(c2ccccc2OC)CC1	370	0.022	Ki ([3]; read-out: Ki): > 583 µM; Ki ([3]; read-out: pKi (converted)): > 631 µM
CCCN1CCC(c2cccc(S(=O)(=O)C(F)(F)F)c2)CC1	258		
CCCN1CCC(c2cccc(OC)c2)CC1	140	1.5	Ki ([3]; read-out: Ki): 18 µM
CCCN1CCC(c2ccccc2)CC1	131	0.17	
CCCN1CCN(c2ccc(OC)cc2)CC1		6.4	
CCCN1CCC(c2ccccc2C(F)(F)F)CC1	254		
CCCN1CCC(c2cccc(C(F)(F)F)c2)CC1	260	0.18	Ki ([3]; read-out: Ki): 128 µM
CCCN1CCN(c2cccc(S(C)(=O)=O)c2)CC1			Ki ([3]; read-out: Ki): 126 µM
CCCN1CCC(c2ccccc2OC)CC1		0.012	Activity (Rattus norvegicus [4]): 277%; Ki ([3]; read-out: Ki): 2.4 µM
CCCN1CCN(c2ccccc2)CC1	181	0.47	
CCCN1CCN(c2cccc(OS(=O)(=O)C(F)(F)F)c2)CC1	285		
CCCN1CCC(c2ccccc2OS(=O)(=O)C(F)(F)F)CC1	270		
CCCN1CCN(c2ccccc2C#N)CC1			Activity (Rattus norvegicus [4]): 313%

Source: ChEMBL document CHEMBL2331278, “Synthesis, pharmacological evaluation and QSAR modeling of mono-substituted 4-phenylpiperidines and 4-phenylpiperazines” (Eur J Med Chem, 2013)
